This experiment deals with nude mice, HT29 intrarenal xenograft, tumor weight T/C. Put plainly: NCI In Vivo Anticancer Drug Screen. Data for tumor model HT29;CX-1 Human Adenocarcinoma (MER+) (intrarenal inoculation) in NU/NU Swiss (nude) mice. Conditions: endpoint: mean tumor weight change, higher = larger tumour. A digest of the protocol:
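T/C = treated-group value ÷ vehicle-group value, using tumor size or survival.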

[1] abbreviates: dose: 6.25 mg/kg/injection, schedule: Q01DX010 (sc), vehicle: saline.
The mark [2] stands for this setting: dose: 12.5 mg/kg/injection, schedule: Q01DX010 (sc), vehicle: saline.
Setting [3] is: dose: 25.0 mg/kg/injection, schedule: Q01DX010 (sc), vehicle: saline.
Setting [4] is: dose: 200.0 mg/kg/injection, schedule: Q01DX010 (sc), vehicle: saline with Tween-80.
[5] abbreviates: dose: 400.0 mg/kg/injection, schedule: Q01DX010 (sc), vehicle: saline with Tween-80.
The mark [6] stands for this setting: dose: 800.0 mg/kg/injection, schedule: Q01DX010 (sc), vehicle: saline with Tween-80.
The mark [7] stands for this setting: dose: 50.0 mg/kg/injection, schedule: Q04DX004 (sc), vehicle: saline.
Setting [8] is: dose: 100.0 mg/kg/injection, schedule: Q04DX004 (sc), vehicle: saline.
Where [9] appears, read: dose: 200.0 mg/kg/injection, schedule: Q04DX004 (sc), vehicle: saline.
Where [10] appears, read: dose: 400.0 mg/kg/injection, schedule: Q04DX004 (sc), vehicle: saline.

Values joined by “and” are separate entries in the source; they are usually repeats but may differ in a detail not shown here. Identical values can stand only once. Records with an inconclusive call do not appear.

Regarding `O=c1[nH]cc(F)c(=O)[nH]1`, the T/C is 160 % of control under setting [1]; 101 % of control under setting [2]; 87 % of control and 107 % of control (dose: 20.0 mg/kg/injection, schedule: Q01DX010 (sc), vehicle: saline); 86 % of control under setting [3]; 46 % of control (dose: 40.0 mg/kg/injection, schedule: Q01DX010 (sc), vehicle: saline); 34 % of control (dose: 50.0 mg/kg/injection, schedule: Q04DX004 (ip), vehicle: saline). Moreover, the T/C was 23 % of control (dose: 75.0 mg/kg/injection, schedule: Q04DX004 (ip), vehicle: saline) and 59 % of control (dose: 80.0 mg/kg/injection, schedule: Q01DX010 (sc), vehicle: saline).
`CSC(SC)=C1C(=O)NC(=O)NC1=O`: the T/C was 66 % of control (dose: 18.7 mg/kg/injection, schedule: Q04DX004 (sc), vehicle: suspension in saline); 77 % of control (dose: 37.5 mg/kg/injection, schedule: Q04DX004 (sc), vehicle: suspension in saline); 49 % of control (dose: 75.0 mg/kg/injection, schedule: Q04DX004 (sc), vehicle: suspension in saline); 56 % of control (dose: 150.0 mg/kg/injection, schedule: Q04DX004 (sc), vehicle: suspension in saline); 97 % of control (dose: 600.0 mg/kg/injection, schedule: Q04DX004 (sc), vehicle: suspension in saline).
In the case of `COc1cc2c[n+](C)c3c4cc5c(cc4ccc3c2cc1OC)OCO5`, the T/C by setting is: (dose: 50.0 mg/kg/injection, schedule: Q04DX004 (sc), vehicle: saline with Tween-80) 67 % of control; (dose: 100.0 mg/kg/injection, schedule: Q04DX004 (sc), vehicle: saline with Tween-80) 48 % of control; (dose: 200.0 mg/kg/injection, schedule: Q04DX004 (sc), vehicle: saline with Tween-80) 79 % of control; (dose: 400.0 mg/kg/injection, schedule: Q04DX004 (sc), vehicle: saline with Tween-80) 60 % of control.
`Nc1nc(F)nc2c1ncn2C1OC(COP(=O)(O)O)C(O)C1O` (stereo not drawn): the T/C (dose: 50.0 mg/kg/injection, schedule: Q01DX010 (sc), vehicle: saline) was 91 % of control; the T/C (dose: 100.0 mg/kg/injection, schedule: Q01DX010 (sc), vehicle: saline) is 84 % of control; the T/C (dose: 200.0 mg/kg/injection, schedule: Q01DX010 (sc), vehicle: saline) is 22 % of control.
Regarding `CC1C=NNC1=O` (stereo not drawn), the T/C was 91 % of control under setting [4], 64 % of control under setting [5] and 105 % of control under setting [6].
Consider `C[N+](C)(C)c1ncnc2c1ncn2C1CCCO1` (stereo not drawn), for which the T/C runs as follows: under setting [1], 80 % of control; under setting [2], 120 % of control; under setting [3], 90 % of control.
On to `CNC(=O)OCc1c(COC(=O)NC)c(-c2ccc(Cl)c(Cl)c2)n2c1Cc1ccccc1C2`, for which the T/C is 109 % of control (dose: 300.0 mg/kg/injection, schedule: Q04DX004 (sc), vehicle: distilled water + Tween-80); 119 % of control (dose: 600.0 mg/kg/injection, schedule: Q04DX004 (sc), vehicle: distilled water + Tween-80); 61 % of control (dose: 1200.0 mg/kg/injection, schedule: Q04DX004 (sc), vehicle: distilled water + Tween-80); 65 % of control (dose: 2400.0 mg/kg/injection, schedule: Q04DX004 (sc), vehicle: distilled water + Tween-80).
For `CN(C1=NS(=O)(=O)N=C(N(C)c2ccccc2)O1)c1ccccc1`, the T/C is 95 % of control (dose: 225.0 mg/kg/injection, schedule: Q04DX004 (sc), vehicle: Klucel (hydroxypropylcellulose) (HPC)); 153 % of control (dose: 450.0 mg/kg/injection, schedule: Q04DX004 (sc), vehicle: Klucel (hydroxypropylcellulose) (HPC)); 168 % of control (dose: 1800.0 mg/kg/injection, schedule: Q04DX004 (sc), vehicle: Klucel (hydroxypropylcellulose) (HPC)).
Regarding `COC1C(O)CC(OC2CC(Oc3cc4cc5c(c(O)c4c(O)c3C)C(=O)[C@@H](OC3CC(OC4CC(OC6CC(C)(O)C(OC(C)=O)C(C)O6)C(O)C(C)O4)C(O)C(C)O3)[C@H]([C@H](OC)C(=O)[C@@H](O)[C@@H](C)O)C5)OC(C)C2OC(C)=O)OC1C` (stereo partly drawn), the T/C (dose: 0.19 mg/kg/injection, schedule: Q04DX004 (sc), vehicle: Klucel (hydroxypropylcellulose) (HPC)) was 103 % of control; the T/C (dose: 0.3 mg/kg/injection, schedule: Q04DX004 (sc), vehicle: Klucel (hydroxypropylcellulose) (HPC)) is 39 % of control; the T/C (dose: 0.38 mg/kg/injection, schedule: Q04DX004 (sc), vehicle: Klucel (hydroxypropylcellulose) (HPC)) was 85 % of control; the T/C (dose: 0.75 mg/kg/injection, schedule: Q04DX004 (sc), vehicle: Klucel (hydroxypropylcellulose) (HPC)) was 89 % of control; the T/C (dose: 1.2 mg/kg/injection, schedule: Q04DX004 (sc), vehicle: Klucel (hydroxypropylcellulose) (HPC)) was 46 % of control; the T/C (dose: 1.5 mg/kg/injection, schedule: Q04DX004 (sc), vehicle: Klucel (hydroxypropylcellulose) (HPC)) was 21 % of control.
`CC1OC1C(=O)C1(O)C(C)C(O)C23OC2(C(O)c2c(O)cccc2C3=O)C1O` (stereo not drawn): the T/C was 172 % of control (dose: 12.0 mg/kg/injection, schedule: Q04DX004 (sc), vehicle: Klucel (hydroxypropylcellulose) (HPC)); 99 % of control (dose: 24.0 mg/kg/injection, schedule: Q04DX004 (sc), vehicle: Klucel (hydroxypropylcellulose) (HPC)); 92 % of control (dose: 48.0 mg/kg/injection, schedule: Q04DX004 (sc), vehicle: Klucel (hydroxypropylcellulose) (HPC)).
Regarding `CN(C)/N=N/c1nc[nH]c1C(N)=O`, the T/C is 90 % of control and 109 % of control (dose: 100.0 mg/kg/injection, schedule: Q01DX010 (sc), vehicle: Klucel (hydroxypropylcellulose) (HPC)); 77 % of control (dose: 400.0 mg/kg/injection, schedule: Q01DX010 (sc), vehicle: Klucel (hydroxypropylcellulose) (HPC)).
Consider `CC[n+]1c(-c2ccccc2)c2cc(N)ccc2c2ccc(N)cc21`, for which the T/C by setting is: (dose: 15.0 mg/kg/injection, schedule: Q04DX004 (sc), vehicle: saline) 119 % of control; (dose: 30.0 mg/kg/injection, schedule: Q04DX004 (sc), vehicle: saline) 66 % of control; (dose: 60.0 mg/kg/injection, schedule: Q04DX004 (sc), vehicle: saline) 53 % of control.
For the compound `COc1ccc(OC)c(/C=C/c2ccnc3ccccc23)c1`, the T/C runs as follows: (dose: 100.0 mg/kg/injection, schedule: Q01DX010 (sc), vehicle: saline with Tween-80) 92 % of control; under setting [4], 61 % of control; under setting [5], 91 % of control; under setting [6], 113 % of control.
Turning to `CC(=O)Oc1ccccc1O`, the T/C was 79 % of control (dose: 75.0 mg/kg/injection, schedule: Q04DX004 (sc), vehicle: saline + Tween-80 + alcohol); 109 % of control (dose: 150.0 mg/kg/injection, schedule: Q04DX004 (sc), vehicle: saline + Tween-80 + alcohol); 119 % of control (dose: 300.0 mg/kg/injection, schedule: Q04DX004 (sc), vehicle: saline + Tween-80 + alcohol).
Consider `CCCCCCCCCCCCCCCC(=O)OCC1OC(n2ccc(N)nc2=O)C(O)C1O` (stereo not drawn), for which the T/C (dose: 18.75 mg/kg/injection, schedule: Q04DX004 (sc), vehicle: saline with Tween-80) is 41 % of control.
On to `NC1=NC(=O)N2CC12` (stereo not drawn), for which the T/C reads like this: under setting [7], 103 % of control; under setting [8], 85 % of control; under setting [9], 79 % of control.
On to `NC(=O)CC(N)C(=O)O` (stereo not drawn), for which the T/C was 151 % of control under setting [10]; 119 % of control (dose: 800.0 mg/kg/injection, schedule: Q04DX004 (sc), vehicle: saline); 90 % of control (dose: 3200.0 mg/kg/injection, schedule: Q04DX004 (sc), vehicle: saline).
As for `Brc1c(NC2=NCCN2)ccc2nccnc12`, the T/C reads like this: (dose: 12.5 mg/kg/injection, schedule: Q04DX004 (sc), vehicle: saline) 113 % of control; (dose: 25.0 mg/kg/injection, schedule: Q04DX004 (sc), vehicle: saline) 92 % of control; under setting [7], 52 % of control; under setting [8], 93 % of control; under setting [9], 91 % of control; under setting [10], 79 % of control.
As to `CC(=O)OCC1OC(n2cc(CBr)nn2)C(OC(C)=O)C(OC(C)=O)C1OC(C)=O` (stereo not drawn), the T/C runs as follows: under setting [4], 79 % of control; under setting [5], 97 % of control; under setting [6], 70 % of control.
Turning to `Cc1c2cc(Cl)c3ccccc3c2c[n+]2ccccc12`, the T/C was 101 % of control (dose: 300.0 mg/kg/injection, schedule: Q04DX004 (sc), vehicle: saline with Tween-80); 82 % of control (dose: 600.0 mg/kg/injection, schedule: Q04DX004 (sc), vehicle: saline with Tween-80); 103 % of control (dose: 1200.0 mg/kg/injection, schedule: Q04DX004 (sc), vehicle: saline with Tween-80).

(Values after PubChem BioAssay AID206 (DTP/NCI, 2004).)
